Test results from PMC11218446, “Antibacterial efficacy and membrane mechanism of action of the Serratia-derived non-ionic lipopeptide, serrawettin W2-FL10” (Microbiology Spectrum, 2024).
Values after ≈ are worked out from the molar mass of the structure shown. Values joined by “and” are separate entries in the source; they are usually repeats but may differ in a detail not shown here. Equal entries are not always repeated.

What was measured:
[1] = tested on: L. monocytogenes ATCC 13932; experiment: Broth microdilution assay (OD 600 nm); type: cell-based, Listeria monocytogenes
Experimental: (§1) Serrawettin W2-FL10 (95% pure) was tested for antibacterial activity using a broth microdilution susceptibility assay ([6]), with melittin included as an antibiotic control. The serrawettin W2-FL10 was prepared in 70% MeCN to 1.00 mg/mL, from which aliquots were prepared using 70% MeCN to a concentration of 50 µg/mL or 500 µg/mL, while aliquots of melittin were prepared using analytical quality H2O to 128 µg/mL. Fifty microliters of the respective W2-FL10 aliquots or melittin were dispensed into a clear 96-well plate and a microdilution (in 70% MeCN for W2-FL10 or analytical quality H2O for melittin) was performed within the plate. The plate was air-dried to remove the solvent and placed in a desiccator with chloroform for 20 min for sterilization.
(§2) All the cultures (inoculated into 5 mL MHB, or 5 mL TSB for Listeria and Enterococcus strains) were incubated at 37°C to reach an optical density (OD) of 0.4 at 600 nm (∼10^7 CFU/mL). A 1:20 dilution of the test strain (final concentration of ∼10^5 CFU/mL) was prepared and 100 µL was dispensed into each well (final concentration of W2-FL10 at 1.5–125 µg/mL and melittin at 2–32 µg/mL). Sterile broth and the OD-adjusted inoculum were included as positive controls, while sterile broth (no inoculum) was included as a negative control. The 96-well plate was incubated for 18 h at 37°C. All the tests were performed in triplicate, with independent duplicates. Following incubation, the absorbance was measured using a microtiter plate reader at 600 nm. The 50% growth inhibition concentration (IC50) was determined using GraphPad Prism version 5 for Windows [GraphPad Software, San Diego, USA (www.graphpad.com)]. A sigmodal curve with variable slope was fitted to each set of dose-repose data according to Rautenbach et al. ([17]) using equation (1):
(§3) (1) Y=bottom+(top−bottom)/1+10^logIC50×Activity slope
(§4) The “top” and “bottom” are the maximum and minimum inhibition responses, respectively, for a particular set of dose-response data, while the activity slope is related to the Hill slope of a sigmoidal binding curve ([16]). […] The MIC value was determined for each set of dose-response data as the lowest concentration, resulting in ≥90% inhibition of the target cell growth. In addition to the MIC and IC50 inhibition parameters, an inhibition concentration factor (ICF), was calculated as outlined in Rautenbach et al. ([17]). The ICF is indicative of the concentration increase from the highest concentration where no activity is observed to the MIC of a compound.

B. subtilis ATCC 6051 = experiment: Broth microdilution assay (OD 600 nm); type: cell-based, Bacillus subtilis
Experimental: as §1
as §2, with “A sigmodal curve with variable slope was fitted to each set of dose-repose data according to Rautenbach et al. ([17]) using equation (1):” left out
The “top” and “bottom” are the maximum and minimum inhibition responses, respectively, for a particular set of dose-response data, while the activity slope is related to the Hill slope of a sigmoidal binding curve ([16]). […] In addition to the MIC and IC50 inhibition parameters, an inhibition concentration factor (ICF), was calculated as outlined in Rautenbach et al. ([17]). […]

E. faecalis ATCC 7080 = experiment: Broth microdilution assay (OD 600 nm); type: cell-based, Enterococcus faecalis
Experimental: as §1, §2, §3, §4

E. faecalis S1 = experiment: Broth microdilution assay (OD 600 nm); type: cell-based, Enterococcus faecalis
Experimental: as §1, §2, §3, §4

S. aureus ATCC 25923 = experiment: Membrane permeability assay, propidium iodide; type: cell-based, Staphylococcus aureus; details: 25 µg/mL
Experimental: The membrane permeability capabilities of the W2-FL10 against the S. aureus strains were determined using PI ([56]). Briefly, black 96-well plates were prepared with W2-FL10 at 6.25, 12.5, and 25 µg/mL, while 4–16 µg/mL of melittin was used as a positive permeability control, and the plates were dried as described in the “Antibacterial activity: broth microdilution assay” section. The S. aureus strains were inoculated into MHB, grown to mid-log phase (OD600 of 0.5–0.6), and diluted to OD600 of 0.3. PI (stock concentration of 1 mg/mL in analytical quality H2O) was added to the cell suspension to a final concentration of 10 µg/mL and cells were incubated in the dark at room temperature for 20 min. Thereafter, 100 µL of OD-adjusted PI cells in the mid-log phase were dispensed into each well. Sterile broth and the OD-adjusted inoculum with PI were included as a non-fluorescent control, while sterile broth with PI was included as a sterility control, and melittin was included as membrane depolarization control. All the tests were performed in triplicate, with independent duplicates. Fluorometric readings of the plate were conducted in 4-min intervals over 60 min (readings began ~60 s after cells were added to the plate) using a Tecan Spark at 535 nm excitation wavelength and 617 nm emission wavelength.
The leakage kinetics or PI permeabilization kinetic was assessed using a rate parameter of ΔPI fluorescence per minute. This was done by fitting linear regression lines on the linear sections, namely 6–16 min for melittin and 6–18 min, as well as 34–50 min for W2-FL10. The rates of PI permeabilization were compared between the three S. aureus strains using a one-way ANOVA with Bonferroni’s post hoc test.

Enterococcus faecium = details: cited from earlier work
From the text: The antimicrobial activity of the serrawettin W2-FI10 analog (i.e., C10H18O2-Leu-Ser-Thr-Phe-Ile), has been extensively investigated.

[2] = 50% growth inhibition, sigmoidal curve fit, n = 3
[3] = inhibition concentration factor
[4] = ≥90% growth inhibition, OD 600 nm, TSB, 18 h 37°C

## CCCCCCCC1CC(=O)N[C@H](CC(C)C)C(=O)N[C@@H](CO)C(=O)N[C@@H]([C@@H](C)O)C(=O)N[C@H](Cc2ccccc2)C(=O)N[C@@H](CC(C)C)C(=O)O1 (stereo partly shown) [W2-FL10, serrawettin W2-FL10]
[1]; [2]
  IC50 ± SD: 3.8 ± 0.2 (3) µg/mL
[1]; LC50 (CHO)/IC50
  Selectivity index: 7.6
[1]; [3]
  ICF (MIC/IC50)^2: 2.7
[1]; [4]
  MIC: 6.3 μg/mL and 6.3 (8.5) μg/mL
B. subtilis ATCC 6051; [2]
  IC50 ± SD: 13.4 ± 0.8 (3) µg/mL
B. subtilis ATCC 6051; LC50 (CHO)/IC50
  Selectivity index: 2.2
B. subtilis ATCC 6051; ≥90% growth inhibition, OD 600 nm, MHB, 18 h 37°C
  MIC: 31.3 μg/mL and 31.3 (42.7) μg/mL
E. faecalis ATCC 7080; [2]
  IC50 ± SD: 3.2 ± 0.3 (3) µg/mL
E. faecalis ATCC 7080; LC50 (CHO)/IC50
  Selectivity index: 9.1
E. faecalis ATCC 7080; [4]
  MIC: 6.3 μg/mL and 6.3 (8.5) μg/mL
E. faecalis S1; [2]
  IC50 ± SD: 5.2 ± 0.5 (3) µg/mL
E. faecalis S1; LC50 (CHO)/IC50
  Selectivity index: 5.6
E. faecalis S1; [3]
  ICF (MIC/IC50)^2: 5.4
E. faecalis S1; [4]
  MIC: 12.5 μg/mL and 12.5 (17.1) μg/mL
S. aureus ATCC 25923
  time within which ≥90% uptake in PI fluorescence was observed: ≤ 3,360 s
Enterococcus faecium
  minimum inhibitory concentration (MIC): 15.6 µg/mL (≈ 21.3 µM)
